# Experimental data: US20220008450A1, “ANTI-HEPATITIS B VIRUS AGENT” (DAIKIN INDUSTRIES, LTD., priority 2018, published 2022)
# Experiments:
# HBV = assay: Anti-HBV activity: intracellular HBV DNA by quantitative PCR in HepG2.2.15 cells; type: cell-based, hepatitis B virus; details: for EC50: Hepatitis B virus, 168 h, HepG2.2.15 cells, intracellular HBV DNA, day 7 after addition, read-out: EC50 (50% effective concentration), anti-HBV activity
# Description: Anti-HBV activity was evaluated by quantitative PCR for determining the amount of HBV DNA in cells on the seventh day after the addition of the agent, using the HepG2.2.15 cell line of HBV-producing cells obtained by introducing a gene having a length twice that of the HBV genome into the human liver cancer cell line HepG2. For PCR of HBV DNA, a forward primer (HBV-S190F; 5′-GCT CGT GTT ACA GGC GGG-3′: SEQ ID NO: 1) and a reverse primer (HBV-S703R; 5′-GAACCACTGAACAAATGGCACTAGTA-3′: SEQ ID NO: 2) were used. PCR was performed by carrying out a reaction at 95° C. for 10 sec, 62° C. for 10 sec, and 72° C. for 30 sec for 35 cycles.
# Specifically, HepG2.2.15 cells were seeded at a concentration of 1×10^5 cells/well. 24 hours later, the compounds of Example 1 and Comparative Example 1 were diluted to have a concentration of 0, 0.49, 0.97, 1.95, 3.90, 7.81, 15.6, 31.3, 62.5, 125, 250, 500, and 1000 nM; and added to the cells. After the cells were cultured for 7 days, each cytoplasmic compartment was collected, and DNA was purified by phenol-chloroform extraction. 20 ng of the purified DNA was used to measure the amount of intracellular HBV DNA by quantitative PCR.
# The EC50 (50% effective concentration) was calculated from a graph showing the relationship between the concentration of the compound and anti-HBV activity.
# HBs antigen = HBs antigen level in HepG2.2.15 culture supernatant by CLIA; type: cell-based, hepatitis B virus; details: day 4 after addition, compared to Entecavir and Tenofovir disoproxil fumarate (FIG. 2)
# Description: The HBs antigen level was measured by measuring the culture supernatant on the fourth day after the addition of the agent by chemiluminescent immunoassay (CLIA) using HepG2.2.15, i.e., HBV-producing cells obtained by introducing a gene having a length twice that of the HBV genome into the human liver cancer cell line HepG2.
# [1] = Cytotoxicity test (WST-1) in HepG2 NTCP-myc cells; type: cell-based; details: human, 7 days culture, read-out: CC50 (50% cytotoxic concentration)
# Description: HepG2 NTCP-myc cells were seeded at a concentration of 2×10^4 cells/well. 24 hours later, agents were diluted to have a concentration of 0, 0.49, 0.97, 1.95, 3.90, 7.81, 15.6, 31.3, 62.5, 125, 250, 500, and 1000 nM; and added to the cells. The HepG2 NTCP-myc cells were cultured for 7 days. After the culture, 10 μl of Premix WST-1 Cell Proliferation Assay System (TaKaRa) was added, and the cells were cultured at 37° C. for 2 hours. Thereafter, absorbance was determined at 450 nm using a microplate reader.
# The CC50 (50% cytotoxic concentration) was calculated from a graph showing the relationship between the concentration of the compound and cytotoxicity.
SMILES,EC50 (HBV),HBs antigen level (relative amount of extracellular HBs antigen) (HBs antigen),SI (CC50/EC50) (HBV; CC50 (HepG2 NTCP-myc) divided by EC50 (HepG2.2.15)),CC50 at 7 days [1]
"OC[C@H]1O[C@@H](n2cnc3c(Cl)nc(Cl)nc32)[C@@H](F)[C@@H]1O [Comparative Example 1, 2,6-dichloro-9-((2R,3S,4R,5R)-3-fluoro-4-hydroxy-5-(hydroxymethyl)tetrahydrofuran-2-yl)-9H-purine, reference compound]",> 10000 nM,–,–,–
"Nc1nc(F)nc2c1ncn2[C@@H]1O[C@H](CO)C(O)C1F (stereo partly drawn) [Example 1, 2′-deoxy-2′-fluoro-β-2-fluoro-D-adenosine]",1.58 nM,remarkably reduced,213411,337 µM
